Source: US7038033B2, “Nematode neuromuscular junction GABA receptors subunits” (University of Utah Research Foundation, priority 1998, dated 2006)

Columns and labels:
[1] = biological target: UNC-49B/C heteromeric GABA receptor (Caenorhabditis elegans, UniProt G5EE10+G5EEY3); test: Two-electrode voltage clamp of Xenopus oocytes injected with equal amounts of UNC-49B and UNC-49C RNA; type: cell-based; conditions: Xenopus oocytes co-expressing UNC-49B and UNC-49C
Procedure: (§1) Oocytes were removed from Xenopus laevis frogs anesthetized by immersion in 0.2% tricaine for 15-30 minutes. Harvested ovarian lobes were defolliculated by incubation in 2 mg/ml of collagenase (Type IA, Sigma) for 2 hours at room temperature on an orbital shaker in calcium-free ND-96 solution containing in mM: 96 NaCl, 2 KCl, 1 MgCl2, and 5 HEPES (pH=7.6). The oocytes were rinsed 5-6 times with a Barth's solution that contained (in mM): 88 NaCl, 1 KCl, 0.41 CaCl2, 0.33 Ca(NO3)2, 1 MgSO4, 2.4 NaHCO3 and 10 HEPES (pH=7.4), and selected stage V-VI oocytes were stored at 18C in Barth's solution supplemented with 1 mM Na-Pyruvate, 0.01 mg/ml gentamycin and an antibiotic-antimycotic solution containing 100 units/ml of penicillin, 100 μg/ml streptomycin and 0.25 μg/ml of Amphotericin B (Gibco BRL).
Oocytes were injected with cRNA (prepared using the mMessage mMachine kit, Ambion) into the cytoplasm 24 hours later. […]
Electrophysiological recordings were performed 3-7 days following injection and were carried out at room temperature in a control Ringers solution containing in mM: 115 NaCl, 2.5 KCl, 1.0 BaCL2, and 10 HEPES (pH=7.4). […] Single channel conductance was determined by fitting Gaussian curves to all points histograms.

[2] = biological target: UNC-49B homomeric GABA receptor (Caenorhabditis elegans, UniProt G5EEY3); test: Two-electrode voltage clamp of Xenopus oocytes injected with UNC-49B.1 mRNA; type: cell-based, C. elegans; conditions: for response of oocytes to agonist: applied at 1 mM or 10 mM
UNC-49B homomeric GABA receptor, sequence (G5EEY3 entry or part of it): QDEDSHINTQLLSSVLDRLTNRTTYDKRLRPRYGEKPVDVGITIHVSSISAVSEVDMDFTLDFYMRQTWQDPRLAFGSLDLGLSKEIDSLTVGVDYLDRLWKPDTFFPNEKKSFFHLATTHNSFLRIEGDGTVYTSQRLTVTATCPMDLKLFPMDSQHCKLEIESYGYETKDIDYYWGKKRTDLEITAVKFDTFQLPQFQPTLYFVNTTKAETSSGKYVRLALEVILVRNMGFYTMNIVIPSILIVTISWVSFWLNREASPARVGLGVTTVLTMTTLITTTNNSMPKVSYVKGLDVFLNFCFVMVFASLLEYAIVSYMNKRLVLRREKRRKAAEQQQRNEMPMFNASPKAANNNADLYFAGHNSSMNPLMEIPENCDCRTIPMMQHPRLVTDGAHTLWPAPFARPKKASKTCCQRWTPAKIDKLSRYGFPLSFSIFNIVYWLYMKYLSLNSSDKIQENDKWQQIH
Procedure: as §1
(§2) Oocytes were injected with cRNA (prepared using the mMessage mMachine kit, Ambion) into the cytoplasm 24 hours later. Glass capillary tubes (World Precision Instruments) were pulled to a fine tip on a vertical micropipette puller (David Kopf) and broken back to an outside diameter of 21 μm. RNA stocks were diluted to a final concentration of 0.75 μg/μl and injected into the oocytes (32 nl) with a microinjector (World Precision Instruments).
(§3) Electrophysiological recordings were performed 3-7 days following injection and were carried out at room temperature in a control Ringers solution containing in mM: 115 NaCl, 2.5 KCl, 1.0 BaCL2, and 10 HEPES (pH=7.4). Two electrode voltage clamp recordings were obtained with a Geneclamp amplifier (Axon Instruments) using […] KCl-filled microelectrodes (1-5 M). Recordings were carried out at a holding potential of −60 mV. Concentration-effect data were fit to the logistic equation: I=Imax/{1+(EC50/[agonist])^nH}, where Imax is the maximal current, [agonist] is the concentration, EC50 is the concentration of agonist resulting in half maximal activation and nH is an empirical parameter describing the steepness of fit and having the same meaning as the Hill coefficient. NFIT (Island Products) was used for non-linear curve fitting. Data are presented as the mean S.E.M.; n is the number of oocytes tested. All combinations of subunits were tested in parallel in at least two independent experiments (at least 4 oocytes for each combination of mRNAs per experiment). The effect of incorporating the UNC-49C subunit was consistent from one experiment to another. Single channel recordings were performed as described in except that 1 mM GABA was applied continuously. Single channel conductance was determined by fitting Gaussian curves to all points histograms.

UNC-49C = test: Two-electrode voltage clamp of Xenopus oocytes injected with UNC-49C RNA; type: cell-based, C. elegans; conditions: any concentration
Procedure: as §1, §2, §3

UNC-49B/C heteromeric GABA receptor, sequence (G5EE10 entry or part of it): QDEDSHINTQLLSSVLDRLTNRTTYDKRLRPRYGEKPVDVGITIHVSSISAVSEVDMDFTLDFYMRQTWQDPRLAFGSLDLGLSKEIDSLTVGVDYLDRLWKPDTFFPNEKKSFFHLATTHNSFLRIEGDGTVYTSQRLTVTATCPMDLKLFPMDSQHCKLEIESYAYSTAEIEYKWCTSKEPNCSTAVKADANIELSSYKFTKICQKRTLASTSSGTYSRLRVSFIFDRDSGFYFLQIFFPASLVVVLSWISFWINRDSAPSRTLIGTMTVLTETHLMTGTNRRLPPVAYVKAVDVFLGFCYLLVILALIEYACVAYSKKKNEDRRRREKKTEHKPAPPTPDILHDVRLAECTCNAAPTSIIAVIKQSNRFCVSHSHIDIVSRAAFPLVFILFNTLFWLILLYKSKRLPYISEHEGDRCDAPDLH
UNC-49B/C heteromeric GABA receptor, sequence (G5EEY3 entry or part of it): as the sequence (G5EEY3 entry or part of it) above

| SMILES | EC50 [1] [µM] | Hill coefficient [1] | current when exposed to agonist ([2]; UNC-49B.1-injected Xenopus oocytes) | EC50 ([2]; UNC-49B.1-injected Xenopus oocytes, holding potential -60 mV, representative experiment, read-out: GABA concentration required to produce half-maximal channel activity (EC50)) [µM] | Hill coefficient ([2]; UNC-49B.1-injected Xenopus oocytes, representative experiment) | response of oocytes to agonist (UNC-49C) | response of oocytes to agonist ([2]; UNC-49B-expressing oocytes) | currents produced by agonist ([2]; UNC-49B-expressing oocytes, 10 mM, n=4) |
| --- | --- | --- | --- | --- | --- | --- | --- | --- |
| NCCCC(=O)O [GABA, gamma-aminobutyric acid] | 108 | 1.33 | robust, desensitizing, dose-dependent current | 43.7 | 2.94 | failed to respond |  |  |
| N[C@@H](CCC(=O)O)C(=O)O [glutamate] |  |  |  |  |  | equally unresponsive | did not respond |  |
| NCC(=O)O [glycine] |  |  |  |  |  | equally unresponsive | did not respond |  |
| NCCC(=O)O [β-alanine] |  |  |  |  |  | equally unresponsive |  | only slightly greater than baseline noise |
